# Results from publication PMC8035642, “A haustorial‐expressed lytic polysaccharide monooxygenase from the cucurbit powdery mildew pathogen Podosphaera xanthii contributes to the suppression of chitin‐triggered immunity” (Molecular Plant Pathology, 2021).
# Molecular target: T1, PHEC27213 (PxLPMO1) (Podosphaera xanthii, UniProt A0A8E4PV92)
# T1 construct: gene SHLPMO1; mature protein, signal peptide removed (191 residues), C-terminal 6xHis tag kept, pET30b NdeI/XhoI, E. coli BL21-CodonPlus-RIL; start Met from NdeI site probably before His1
# Assay: MALDI-TOF-MS of reaction products
# Format: biochemical
# Details: 1 mM ascorbic acid as reductant, 0.1 M sodium phosphate pH 7.0, 37 °C overnight, 1 μM enzyme; no copper addition told
# T1 sequence (A0A8E4PV92 entry or part of it): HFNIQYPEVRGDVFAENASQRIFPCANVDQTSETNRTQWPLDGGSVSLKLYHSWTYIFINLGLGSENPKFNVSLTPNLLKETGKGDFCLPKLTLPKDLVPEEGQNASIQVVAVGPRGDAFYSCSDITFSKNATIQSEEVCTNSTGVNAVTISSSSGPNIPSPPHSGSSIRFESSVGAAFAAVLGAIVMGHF
smiles,measurement,value
"CC(=O)N[C@H]1[C@H](O[C@H]2[C@H](O)[C@@H](NC(C)=O)[C@H](O[C@H]3[C@H](O)[C@@H](NC(C)=O)[C@H](O[C@H]4[C@H](O)[C@@H](NC(C)=O)C(O)O[C@@H]4CO)O[C@@H]3CO)O[C@@H]2CO)O[C@H](CO)[C@@H](O[C@@H]2O[C@H](CO)[C@@H](O[C@@H]3O[C@H](CO)[C@@H](O[C@@H]4O[C@H](CO)[C@@H](O)[C@H](O)[C@H]4NC(C)=O)[C@H](O)[C@H]3NC(C)=O)[C@H](O)[C@H]2NC(C)=O)[C@@H]1O (stereo partly shown) [DP7, hepta-N-acetylchitoheptaose]",MALDI-TOF-MS of reaction products,"PHEC27213 was able to release, predominantly, DP5 oligosaccharides"
